Reference: the kinase profiling compilation of Christmann-Franck et al. (2016)

Assays:
Assay in all cases: KINOMEscan competition binding
Conditions in all cases: compound 10.0 µM
[1] = biological target: TEK (human) (UniProt Q02763)
[2] = biological target: ALK (human) (UniProt Q9UM73)
[3] = biological target: PRKACB (human) (UniProt P22694)
[4] = biological target: INSRR (human) (UniProt P14616)
[5] = biological target: MAPK13 (human) (UniProt O15264)
[6] = biological target: MAP3K3 (human) (UniProt Q99759)
[7] = biological target: PHKG1 (human) (UniProt Q16816)
[8] = biological target: PRKG1 (human) (UniProt Q13976)
[9] = biological target: IKBKE (human) (UniProt Q14164)
[10] = biological target: FER (human) (UniProt P16591)
[11] = biological target: TNK1 (human) (UniProt Q13470)
[12] = biological target: MAP2K1 (human) (UniProt Q02750)
[13] = biological target: PRKAA2 (human) (UniProt P54646)
[14] = biological target: DCLK3 (human) (UniProt Q9C098)
[15] = biological target: TLK1 (human) (UniProt Q9UKI8)
[16] = biological target: ROS1 (human) (UniProt P08922)
[17] = biological target: MAPK15 (human) (UniProt Q8TD08)
[18] = biological target: NUAK1 (human) (UniProt O60285)
[19] = biological target: CLK2 (human) (UniProt P49760)
[20] = biological target: MAP3K4 (human) (UniProt Q9Y6R4)
[21] = biological target: WEE1 (human) (UniProt P30291)
[22] = biological target: CSNK1A1L (human) (UniProt Q8N752)
[23] = biological target: MAPK4 (human) (UniProt P31152)
[24] = biological target: ACVR2B (human) (UniProt Q13705)
[25] = biological target: RPS6KA6 KD1 (human) (UniProt Q9UK32)
[26] = biological target: IRAK1 (human) (UniProt P51617)
[27] = biological target: CLK4 (human) (UniProt Q9HAZ1)
[28] = biological target: PKN1 (human) (UniProt Q16512)
[29] = biological target: DAPK2 (human) (UniProt Q9UIK4)
[30] = biological target: PIP5K1C (human) (UniProt O60331)
[31] = biological target: PRKG2 (human) (UniProt Q13237)
[32] = biological target: STK38L (human) (UniProt Q9Y2H1)
[33] = biological target: CDKL2 (human) (UniProt Q92772)
[34] = biological target: CDK4 CCND1 (human) (UniProt P11802+P24385)
[35] = biological target: ERBB3 (human) (UniProt P21860)
[36] = biological target: STK32B (human) (UniProt Q9NY57)
[37] = biological target: EPHA2 (human) (UniProt P29317)
[38] = biological target: EPHA3 (human) (UniProt P29320)
[39] = biological target: EPHB6 (human) (UniProt O15197)
[40] = biological target: FLT3 (human) (UniProt P36888)

FER (human), sequence (P16591 whole entry, looked up): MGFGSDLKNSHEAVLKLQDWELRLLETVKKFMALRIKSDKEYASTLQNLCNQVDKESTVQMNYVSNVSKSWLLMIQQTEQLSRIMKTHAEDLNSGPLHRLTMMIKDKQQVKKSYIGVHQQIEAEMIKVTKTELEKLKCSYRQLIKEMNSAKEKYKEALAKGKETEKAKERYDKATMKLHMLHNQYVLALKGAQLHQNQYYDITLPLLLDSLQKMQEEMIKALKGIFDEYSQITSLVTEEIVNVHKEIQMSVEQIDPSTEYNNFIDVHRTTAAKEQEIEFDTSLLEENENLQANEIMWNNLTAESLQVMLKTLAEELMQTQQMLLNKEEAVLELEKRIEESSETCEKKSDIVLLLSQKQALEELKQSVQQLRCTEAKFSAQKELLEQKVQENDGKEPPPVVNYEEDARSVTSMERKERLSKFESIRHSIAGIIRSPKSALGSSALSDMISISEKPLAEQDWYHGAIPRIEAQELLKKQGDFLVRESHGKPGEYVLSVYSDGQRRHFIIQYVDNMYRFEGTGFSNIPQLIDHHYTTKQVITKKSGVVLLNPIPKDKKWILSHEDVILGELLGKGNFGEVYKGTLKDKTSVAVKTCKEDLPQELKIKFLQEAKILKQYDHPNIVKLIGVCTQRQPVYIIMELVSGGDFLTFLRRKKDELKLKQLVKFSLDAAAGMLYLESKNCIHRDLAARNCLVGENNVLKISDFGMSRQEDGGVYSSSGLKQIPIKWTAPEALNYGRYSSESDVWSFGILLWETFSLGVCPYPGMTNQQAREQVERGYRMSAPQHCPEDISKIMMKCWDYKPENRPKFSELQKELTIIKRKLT
PKN1 (human), sequence (Q16512 whole entry, looked up): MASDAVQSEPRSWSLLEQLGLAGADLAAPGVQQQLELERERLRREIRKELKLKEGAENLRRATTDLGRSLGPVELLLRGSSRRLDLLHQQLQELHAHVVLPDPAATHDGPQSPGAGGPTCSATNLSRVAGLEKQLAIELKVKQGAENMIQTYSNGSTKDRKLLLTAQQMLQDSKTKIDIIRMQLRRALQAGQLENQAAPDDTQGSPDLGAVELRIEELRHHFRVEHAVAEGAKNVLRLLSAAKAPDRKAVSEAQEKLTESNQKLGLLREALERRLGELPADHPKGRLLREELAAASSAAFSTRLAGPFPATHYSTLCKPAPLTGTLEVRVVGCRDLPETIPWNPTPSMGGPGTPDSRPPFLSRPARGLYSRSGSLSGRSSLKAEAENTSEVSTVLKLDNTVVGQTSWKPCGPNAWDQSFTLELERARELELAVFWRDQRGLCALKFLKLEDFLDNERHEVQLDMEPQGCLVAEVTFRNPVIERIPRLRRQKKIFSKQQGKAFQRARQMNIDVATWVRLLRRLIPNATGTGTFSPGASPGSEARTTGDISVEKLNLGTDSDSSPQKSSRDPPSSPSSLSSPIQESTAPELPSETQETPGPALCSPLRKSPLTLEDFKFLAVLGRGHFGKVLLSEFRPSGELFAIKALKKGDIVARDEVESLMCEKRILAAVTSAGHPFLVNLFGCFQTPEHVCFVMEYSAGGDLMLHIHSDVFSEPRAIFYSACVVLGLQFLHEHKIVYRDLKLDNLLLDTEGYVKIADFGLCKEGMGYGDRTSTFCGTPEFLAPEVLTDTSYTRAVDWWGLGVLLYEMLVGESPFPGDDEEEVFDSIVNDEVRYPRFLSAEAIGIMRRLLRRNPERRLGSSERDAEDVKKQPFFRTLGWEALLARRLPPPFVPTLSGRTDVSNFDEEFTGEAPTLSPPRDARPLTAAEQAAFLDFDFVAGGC
EPHA3 (human), sequence (P29320 whole entry, looked up): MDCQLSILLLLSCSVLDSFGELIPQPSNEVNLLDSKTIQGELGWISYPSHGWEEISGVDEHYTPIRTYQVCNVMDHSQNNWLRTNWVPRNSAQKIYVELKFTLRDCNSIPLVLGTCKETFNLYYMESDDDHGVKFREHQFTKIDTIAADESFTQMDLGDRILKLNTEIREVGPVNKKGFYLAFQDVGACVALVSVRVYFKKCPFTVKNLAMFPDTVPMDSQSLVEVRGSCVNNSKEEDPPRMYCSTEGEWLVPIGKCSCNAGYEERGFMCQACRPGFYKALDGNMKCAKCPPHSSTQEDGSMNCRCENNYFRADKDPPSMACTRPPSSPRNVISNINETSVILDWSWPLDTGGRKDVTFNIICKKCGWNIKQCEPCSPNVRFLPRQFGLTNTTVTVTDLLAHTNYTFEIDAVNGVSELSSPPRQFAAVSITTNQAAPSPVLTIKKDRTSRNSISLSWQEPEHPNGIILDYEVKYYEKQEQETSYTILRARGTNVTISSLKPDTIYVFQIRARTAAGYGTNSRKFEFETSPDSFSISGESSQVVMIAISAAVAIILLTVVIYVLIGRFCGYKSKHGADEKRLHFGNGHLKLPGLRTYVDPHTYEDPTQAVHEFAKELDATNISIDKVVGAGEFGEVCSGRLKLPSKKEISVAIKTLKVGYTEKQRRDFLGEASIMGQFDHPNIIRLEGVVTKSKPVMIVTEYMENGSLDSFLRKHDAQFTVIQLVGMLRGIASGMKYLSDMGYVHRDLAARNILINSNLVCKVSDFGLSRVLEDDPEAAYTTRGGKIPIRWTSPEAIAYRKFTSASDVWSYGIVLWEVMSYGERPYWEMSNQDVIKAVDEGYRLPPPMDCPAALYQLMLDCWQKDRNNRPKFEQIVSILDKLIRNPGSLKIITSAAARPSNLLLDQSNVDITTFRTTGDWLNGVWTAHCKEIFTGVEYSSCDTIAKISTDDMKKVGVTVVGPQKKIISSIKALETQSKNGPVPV
CSNK1A1L (human), sequence (Q8N752 whole entry, looked up): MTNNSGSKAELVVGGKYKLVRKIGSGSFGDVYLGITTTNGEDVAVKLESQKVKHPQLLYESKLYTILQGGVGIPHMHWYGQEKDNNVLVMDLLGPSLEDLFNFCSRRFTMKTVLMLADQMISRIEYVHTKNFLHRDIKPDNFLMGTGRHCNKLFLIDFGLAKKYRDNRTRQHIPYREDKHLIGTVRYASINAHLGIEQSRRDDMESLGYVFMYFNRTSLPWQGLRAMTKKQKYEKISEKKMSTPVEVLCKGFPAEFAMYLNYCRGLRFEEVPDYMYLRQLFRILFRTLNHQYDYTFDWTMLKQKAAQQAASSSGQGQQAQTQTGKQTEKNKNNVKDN
RPS6KA6 KD1 (human), sequence (Q9UK32 whole entry, looked up): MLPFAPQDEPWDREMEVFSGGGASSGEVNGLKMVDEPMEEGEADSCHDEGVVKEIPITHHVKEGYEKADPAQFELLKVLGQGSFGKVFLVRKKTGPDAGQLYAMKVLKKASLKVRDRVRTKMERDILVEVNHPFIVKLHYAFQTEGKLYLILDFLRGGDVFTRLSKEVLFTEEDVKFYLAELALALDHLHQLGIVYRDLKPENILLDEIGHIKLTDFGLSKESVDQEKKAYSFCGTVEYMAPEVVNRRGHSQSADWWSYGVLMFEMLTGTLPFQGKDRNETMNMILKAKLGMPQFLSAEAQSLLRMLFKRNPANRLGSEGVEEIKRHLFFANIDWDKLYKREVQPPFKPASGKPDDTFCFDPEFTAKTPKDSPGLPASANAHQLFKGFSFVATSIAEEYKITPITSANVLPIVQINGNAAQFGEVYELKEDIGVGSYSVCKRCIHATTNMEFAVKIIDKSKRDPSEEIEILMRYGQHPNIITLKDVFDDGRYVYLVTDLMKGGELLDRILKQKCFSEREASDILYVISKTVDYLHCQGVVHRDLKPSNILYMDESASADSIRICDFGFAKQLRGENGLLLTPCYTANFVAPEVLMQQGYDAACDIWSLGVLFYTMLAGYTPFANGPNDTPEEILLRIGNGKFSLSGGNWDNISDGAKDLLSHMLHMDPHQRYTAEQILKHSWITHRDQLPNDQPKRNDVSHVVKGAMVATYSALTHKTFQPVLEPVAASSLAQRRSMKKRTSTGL
CLK4 (human), sequence (Q9HAZ1 whole entry, looked up): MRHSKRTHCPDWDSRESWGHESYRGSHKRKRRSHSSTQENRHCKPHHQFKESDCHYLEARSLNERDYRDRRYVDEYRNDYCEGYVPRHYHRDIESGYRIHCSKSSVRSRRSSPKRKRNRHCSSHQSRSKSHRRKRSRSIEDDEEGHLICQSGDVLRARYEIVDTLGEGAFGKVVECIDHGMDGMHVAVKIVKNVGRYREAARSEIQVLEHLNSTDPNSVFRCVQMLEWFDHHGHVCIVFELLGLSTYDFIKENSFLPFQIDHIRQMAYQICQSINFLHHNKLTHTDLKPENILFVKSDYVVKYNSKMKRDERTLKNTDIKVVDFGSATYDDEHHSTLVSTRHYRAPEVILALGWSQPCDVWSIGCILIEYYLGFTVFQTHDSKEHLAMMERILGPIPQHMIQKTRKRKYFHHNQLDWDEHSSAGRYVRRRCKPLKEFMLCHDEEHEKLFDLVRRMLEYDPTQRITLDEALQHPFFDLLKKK
ACVR2B (human), sequence (Q13705 whole entry, looked up): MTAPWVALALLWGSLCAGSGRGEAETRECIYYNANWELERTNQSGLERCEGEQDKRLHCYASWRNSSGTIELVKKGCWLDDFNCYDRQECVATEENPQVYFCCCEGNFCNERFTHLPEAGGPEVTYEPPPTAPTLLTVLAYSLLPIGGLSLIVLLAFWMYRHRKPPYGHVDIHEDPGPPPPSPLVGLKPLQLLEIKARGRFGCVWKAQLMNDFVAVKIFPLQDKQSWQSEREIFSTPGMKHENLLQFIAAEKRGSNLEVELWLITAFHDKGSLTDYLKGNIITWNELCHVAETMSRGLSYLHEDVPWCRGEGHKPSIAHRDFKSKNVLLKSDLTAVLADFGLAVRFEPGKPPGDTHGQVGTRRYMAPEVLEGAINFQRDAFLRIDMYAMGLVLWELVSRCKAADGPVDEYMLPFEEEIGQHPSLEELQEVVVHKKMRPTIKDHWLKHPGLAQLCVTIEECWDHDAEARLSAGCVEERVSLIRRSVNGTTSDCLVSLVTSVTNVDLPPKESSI

SMILES | kinase still bound, per cent of control [1] | kinase still bound, per cent of control [2] | kinase still bound, per cent of control [3] | kinase still bound, per cent of control [4] | kinase still bound, per cent of control [5] | kinase still bound, per cent of control [6] | kinase still bound, per cent of control [7] | kinase still bound, per cent of control [8] | kinase still bound, per cent of control [9] | kinase still bound, per cent of control [10] | kinase still bound, per cent of control [11] | kinase still bound, per cent of control [12] | kinase still bound, per cent of control [13] | kinase still bound, per cent of control [14] | kinase still bound, per cent of control [15] | kinase still bound, per cent of control [16] | kinase still bound, per cent of control [17] | kinase still bound, per cent of control [18] | kinase still bound, per cent of control [19] | kinase still bound, per cent of control [20] | also measured
O=c1[nH]c2ccccc2n1C1CCN(Cc2ccc(-c3nc4cc5[nH]cnc5cc4nc3-c3ccccc3)cc2)CC1 | 85% | 37% | 100% | 100% | 100% | 83% | 100% | 88% | 100% | 83% | 91% | 83% | 95% | 91% | 100% | 50% | 100% | 100% | 90% | 78% | kinase still bound, per cent of control [21]: 99%; kinase still bound, per cent of control [22]: 80%; kinase still bound, per cent of control [23]: 100%; kinase still bound, per cent of control [24]: 100%; kinase still bound, per cent of control [25]: 75%; kinase still bound, per cent of control [26]: 76%; kinase still bound, per cent of control [27]: 95%; kinase still bound, per cent of control [28]: 100%; kinase still bound, per cent of control [29]: 100%; kinase still bound, per cent of control [30]: 29%; kinase still bound, per cent of control [31]: 91%; kinase still bound, per cent of control [32]: 82%; kinase still bound, per cent of control [33]: 77%; kinase still bound, per cent of control [34]: 100%; kinase still bound, per cent of control [35]: 100%; kinase still bound, per cent of control [36]: 88%; kinase still bound, per cent of control [37]: 100%; kinase still bound, per cent of control [38]: 82%; kinase still bound, per cent of control [39]: 69%
C=CC(=O)Nc1ccc(C(=O)c2sc(Nc3ccc(N4CCN(C)CC4)cc3OC)nc2N)cc1 | 89% | 8.4% | 92% | 78% | 100% | 65% | 7.4% | 74% | 84% | 82% | 22% | 100% | 100% | 3.8% | 69% | 38% | 75% | 100% | 0% | 100% | kinase still bound, per cent of control [40]: 73%; kinase still bound, per cent of control [21]: 100%; kinase still bound, per cent of control [22]: 78%; kinase still bound, per cent of control [23]: 100%; kinase still bound, per cent of control [24]: 100%; kinase still bound, per cent of control [25]: 50%; kinase still bound, per cent of control [26]: 41%; kinase still bound, per cent of control [27]: 1.6%; kinase still bound, per cent of control [28]: 97%; kinase still bound, per cent of control [29]: 2.8%; kinase still bound, per cent of control [30]: 44%; kinase still bound, per cent of control [31]: 81%; kinase still bound, per cent of control [32]: 68%; kinase still bound, per cent of control [33]: 86%; kinase still bound, per cent of control [34]: 10%; kinase still bound, per cent of control [35]: 93%; kinase still bound, per cent of control [36]: 71%; kinase still bound, per cent of control [37]: 96%; kinase still bound, per cent of control [38]: 80%; kinase still bound, per cent of control [39]: 64%
